In article PMC6876276 (Cell Chemical Biology, 2019):

Molecular target: T1, SHMT1 (Homo sapiens, UniProt P34896)
T1 sequence (P34896 2-483): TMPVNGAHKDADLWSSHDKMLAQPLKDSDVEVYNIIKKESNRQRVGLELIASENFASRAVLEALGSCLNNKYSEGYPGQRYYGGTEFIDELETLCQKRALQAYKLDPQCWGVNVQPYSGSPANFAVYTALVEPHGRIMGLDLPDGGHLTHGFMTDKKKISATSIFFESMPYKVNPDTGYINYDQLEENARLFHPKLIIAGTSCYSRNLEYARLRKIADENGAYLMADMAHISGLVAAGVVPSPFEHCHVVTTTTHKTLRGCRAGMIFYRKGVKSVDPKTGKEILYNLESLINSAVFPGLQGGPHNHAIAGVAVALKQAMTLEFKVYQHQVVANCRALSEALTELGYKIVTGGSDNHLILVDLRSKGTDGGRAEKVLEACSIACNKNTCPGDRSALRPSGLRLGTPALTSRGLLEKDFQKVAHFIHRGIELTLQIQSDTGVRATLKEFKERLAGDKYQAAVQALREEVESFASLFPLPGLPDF
Experiment: thermal shift assay, SYPRO orange
Format: binding
Conditions: 2 μM apo-SHMT1, SEC buffer; covalent internal aldimine (reversible)

## Cc1ncc(COP(=O)(O)O)c(C=O)c1O [PLP, pyridoxal 5′-phosphate]
  melting temperature: selective increase in melting temperature of apo-SHMT1 upon incubation with increasing PLP amounts
